Laboratory results from the NIST ThermoML archive (doi:10.1021/je800282a).
± gives the expanded uncertainty stated by the source.

What was measured:
[1] = for viscosity: 101.33 kPa, Liquid
[2] = refractive index (Na D-line) (dimensionless); details: 101.33 kPa, Liquid
[3] = wn = mass fraction of the nth substance listed; details: for viscosity: 101 kPa, Liquid
[4] = refractive index (Na D-line) (dimensionless); wn = mass fraction of the nth substance listed; details: 101 kPa, Liquid

CN(CCO)CCO [N-methyldiethanolamine]
Details	refractive index, [2]	surface tension liquid-gas, [1] [mN/m]	viscosity, [1] [mPa·s]
298.15 K	–	–	77.85 ± 4.8
303.15 K	1.46532 ± 0.0012	38.74 ± 1.1	–
308.15 K	–	–	43.9 ± 1.4
313.15 K	1.46074 ± 0.0012	37.48 ± 1	–
318.15 K	1.45892 ± 0.0012	–	27.44 ± 0.92
323.15 K	1.45708 ± 0.0012	36.82 ± 1	–
328.15 K	–	–	17.89 ± 0.62
333.15 K	1.45287 ± 0.0012	35.31 ± 0.98	–
338.15 K	–	–	12.34 ± 0.45

CN(CCO)CCO [N-methyldiethanolamine] + O
Details	refractive index	surface tension liquid-gas [mN/m]	viscosity [mPa·s]
[3], 298.15 K, w1 = 0.3228	–	–	3.48 ± 0.17
[3], 298.15 K, w1 = 0.488	–	–	9.25 ± 0.35
[3], 303.15 K, w1 = 0.3288	–	53.16 ± 1.4	–
[3], 303.15 K, w1 = 0.488	–	47.56 ± 1.3	–
[3], 308.15 K, w1 = 0.3228	–	–	2.26 ± 0.13
[3], 308.15 K, w1 = 0.488	–	–	6.14 ± 0.25
[3], 313.15 K, w1 = 0.3288	–	52.38 ± 1.4	–
[3], 313.15 K, w1 = 0.488	–	46.92 ± 1.3	–
[3], 318.15 K, w1 = 0.3228	–	–	1.82 ± 0.12
[3], 318.15 K, w1 = 0.488	–	–	4.37 ± 0.2
[3], 323.15 K, w1 = 0.3288	–	51.42 ± 1.4	–
[3], 323.15 K, w1 = 0.488	–	45.58 ± 1.2	–
[3], 328.15 K, w1 = 0.3228	–	–	1.34 ± 0.11
[3], 328.15 K, w1 = 0.488	–	–	3.46 ± 0.17
[3], 333.15 K, w1 = 0.3288	–	50.67 ± 1.4	–
[3], 333.15 K, w1 = 0.488	–	44.83 ± 1.2	–
[3], 338.15 K, w1 = 0.3228	–	–	1.17 ± 0.1
[3], 338.15 K, w1 = 0.488	–	–	2.81 ± 0.15
[4], 303.15 K, w1 = 0.3228	1.37748 ± 0.0013	–	–
[4], 303.15 K, w1 = 0.488	1.40298 ± 0.0013	–	–
[4], 313.15 K, w1 = 0.3228	1.37604 ± 0.0013	–	–
[4], 313.15 K, w1 = 0.488	1.39971 ± 0.0013	–	–
[4], 318.15 K, w1 = 0.3228	1.37467 ± 0.0013	–	–
[4], 318.15 K, w1 = 0.488	1.39629 ± 0.0013	–	–
[4], 323.15 K, w1 = 0.3228	1.37305 ± 0.0013	–	–
[4], 323.15 K, w1 = 0.488	1.39254 ± 0.0013	–	–
[4], 333.15 K, w1 = 0.3228	1.37134 ± 0.0013	–	–
[4], 333.15 K, w1 = 0.488	1.38821 ± 0.0013	–	–
